The values below come from PMC12266748, “A Xanthine Derivative With Novel Heat Shock Protein 90‐Alpha Inhibitory and Senolytic Properties” (Aging Cell, 2025).

Read-outs that look alike come from different tables or passages of the source.

Test [1] relates to Mouse ear fibroblasts (MearF). Description: MTT viability of Doxorubicin-induced senescent and non-senescent murine ear fibroblasts. Particulars: for EC50: Mus musculus, Fibroblast. The test is classed as cell-based, C57BL/6J mice. An excerpt:
(§1) IMR90 and WI38 lung fibroblasts were purchased from ECACC‐Merck. Human bone marrow (BM)‐derived mesenchymal stromal cells (MSCs) were purchased from Lonza. Human umbilical vein endothelial cells (HUVECs) are primary cells obtained from a pool of donors purchased from Clonetics (Lonza). Murine ear fibroblasts (MearFs) were obtained from C57BL/6J mice maintained in the INRCA “Specific Pathogen Free” (SPF) animal facility. MCF7 breast cancer cells were purchased from ATCC. For dose–response curves, IMR90 and WI38 were induced to senescence through replicative passages; MSCs, HUVECs, and MearFs senescence was induced with Doxorubicin; MCF7 senescence was induced with 4‐Hydroxytamoxifen (Lee et al. [2014]). The EC50 was calculated using GraphPad Prism 10 software. All treatment specifications are reported in the extended section.
(§2) Cell viability was determined using an MTT assay. Absorbance was measured using a NB‐12‐0035 Microplate Reader (NeoBiotech Co.). Data are expressed as a percentage of viability compared with untreated cells.
Murine ear fibroblasts (MearFs) were obtained from C57BL/6J mice maintained in the INRCA "Specific Pathogen Free" (SPF) animal facility. The ear biopsies (2 mm radius) were obtained with a dedicated puncher, and cells recovered as previously described (Malavolta et al. 2022). Cells were seeded at a density of 5000/cm^2 in T75 flasks (Corning Costar, Sigma Aldrich, St. Louis, MO, USA) and maintained at 37°C in a 95% humidified incubator with 5% CO2. Culture was carried out in RPMI (Euroclone, Milano, Italy) supplemented with 10% Fetal Calf Serum (FCS, Sigma-Aldrich, St. Louis, MO, USA), 2mM L-Glutamine, 100 U/mL penicillin and […] streptomycin (all from Sigma- Aldrich, St. Louis, MO, USA). At approximately 80% confluence, the cells were detached from the plate by incubation with trypsin-EDTA (Sigma-Aldrich, St. Louis, MO, USA) for 5 min at 37 °C and re-plated. For Doxorubicin-induced senescence, cells were seeded in a 96-well plate at a 5000 cells/cm2 density. MSC cells were treated with 100 nM Doxorubicin (DOX) for 24 h and then maintained with medium for 4 days; HUVECs were treated with 50 nM DOX for 24 h and then maintained with medium for 4 days. MearFs were induced to senescence by continuous exposure (5 days) to 75 nM DOX. […]
(§3) Cell viability assay. Cell viability has been determined with MTT (3-(4,5-dimethylthiazol-2-yl)-2, 5-diphenyltetrazolium bromide) assay. […] Insoluble formazan salts produced were solubilized with DMSO incubation, and then absorbance was measured at 540 nm using a microplate reader (NB-12-0035 Microplate Reader, NeoBiotech Co., Seoul, Republic of Korea). Data are expressed as a percentage of viability compared with untreated cells (the control group has been considered 100% of viability).

The test system of another test is IMR90 cells. Briefly: Immunofluorescence of Cytochrome C / mitochondria colocalization in senescent IMR90. As to conditions: senescent IMR90 (PD21), 48 h, K5 25 μM, Dasatinib 1 μM; Vehicle OR = 0.913. In kind it is cell-based, Homo sapiens. Here is the method:
Treated/untreated senescent IMR90 and MCF7 cells were fixed, permeabilized, and stained following suppliers' recommendations. Images were acquired using an Olympus IX83 research inverted microscope (IF) and a phase microscopy Nikon ECLIPSE Ei R (IHC) at 40× MAG.
Immunofluorescence staining. Treated/untreated IMR90 and MCF7 cells were cultured in LabTek II chamber slides (Nunc, Biosigma). At the final time point, cells were stained with 500 nM MitoTracker Orange (Thermo Fisher Scientific) for 30 min at 37°C and then fixed in 4% PFA (Merck) for 10 min, RT, and permeabilized with 0.1% Triton solution (Merck) for 30 min at RT. Samples were blocked in 5% BSA for 90 min, incubated overnight at 4°C with primary antibody against Cytochrome C (1:50, RbMAb, Abcam), and 1h at RT with secondary antibody Alexa Fluor 488 goat anti-Rb (1:200, Thermo Fisher Scientific). Nuclei were stained with DAPI (Cell Signaling) for 10 min at RT, and ProLong Glass Antifade Mountant (Thermo Fisher Scientific) was used to seal coverslips. Images were acquired using an Olympus IX83 research inverted microscope at 40X magnifications.

Test [2] relates to Human mesenchymal stem cells (MSCs). Briefly: MTT viability of Doxorubicin-induced senescent and non-senescent MSCs. The test is classed as cell-based. As to conditions: for EC50: Homo sapiens, Mesenchymal stem cells, MTT.
Source text: as §1, §2
Human bone marrow (BM)-derived mesenchymal stromal cells (MSCs) were purchased from Lonza (Allendale, NJ, USA) and cultured in α-MEM (Euroclone, Milano, Italy), with 10% fetal bovine serum (FBS, Lonza, Stein, Switzerland), 100 U/mL penicillin, […] streptomycin and 2 mM L-glutamine. Cells were seeded at a density of 5000/cm^2 and maintained at 37°C in a humidified atmosphere with 5% CO2. The culture medium was changed at 48 h intervals, and cells were trypsinized when almost 80% were confluent using 0.25% trypsin-EDTA (Euroclone, Milano, Italy). […]
as §3

A further test deals with HUVEC. Description: MTT viability of Doxorubicin-induced senescent and non-senescent HUVEC. In kind it is cell-based, Human. As to conditions: for EC50: Homo sapiens.
Source text: as §1, §2
Human umbilical vein endothelial cells (HUVECs) are primary cells obtained from a pool of donors purchased from Clonetics (Lonza, Stein, Switzerland). HUVECs were cultured in endothelial basal medium (EBM-2, CC-3156, Lonza) supplemented with SingleQuot Bullet Kit (CC-4176, Lonza) containing 0.1% human recombinant epidermal growth factor (rh-EGF), 0.04% hydrocortisone, 0.1% vascular endothelial growth factor (VEGF), 0.4% human recombinant fibroblast growth factor (rh-FGF-B), 0.1% insulin-like growth factor-1 with the substitution of arginine for glutamic acid at position 3 (R3-IGF-1), 0.1% ascorbic acid, 0.1% heparin, 0.1% gentamicin and amphotericin-B (GA-1000), and 2% fetal bovine serum (FBS). The cells were seeded at a density of 5000/cm^2 in T75 flasks (Corning Costar, Sigma Aldrich, St. Louis, MO, USA).
Murine ear fibroblasts (MearFs) were obtained from C57BL/6J mice maintained in the INRCA "Specific Pathogen Free" (SPF) animal facility. The ear biopsies (2 mm radius) were obtained with a dedicated puncher, and cells recovered as previously described (Malavolta et al. 2022). Cells were seeded at a density of 5000/cm^2 in T75 flasks (Corning Costar, Sigma Aldrich, St. Louis, MO, USA) and maintained at 37°C in a 95% humidified incubator with 5% CO2. […]
as §3

Where [3] appears, read: DNA damage (Doxorubicin), MTT, read-out: EC50 senescent cells.
Where [4] appears, read: MTT, read-out: EC50 proliferating cells.

As for `Cc1ccccc1-n1c(=O)n(Cc2ccccc2)c(=O)c2[nH]cnc21` [Compound K5, 1-benzyl-3-(2-methylphenyl)-7H-purine-2,6-dione], the “Senolytic evidence (no, partly/yes)” value is listed as “No” in test [1] (DNA damage (Doxorubicin)), “Partly” in test [2] (DNA damage (Doxorubicin)) and “No” with HUVEC (DNA damage (Doxorubicin)). For the same compound, the “difference in vitality, DOXO-induced senescent vs non-senescent proliferating cells” value (in test [1] (MTT); in the test on HUVEC (MTT)) was “no discernible difference” in each case. The EC50 in test [1] (setting [3]) is greater than 500 µM; in test [1] (setting [4]), greater than 500 µM; in test [2] (DNA damage (Doxorubicin), read-out: EC50 senescent cells), greater than 200 µM; in test [2] (read-out: EC50 proliferating cells), greater than 500 µM; in the test on HUVEC (setting [3]), greater than 500 µM; in the test with HUVEC (setting [4]), greater than 500 µM. Further, the “Cytochrome C / mitochondria colocalization, Overlap R (OR)” value in the test with IMR90 cells is on record as 0.454.

A word on the EC50: it is the midpoint of the concentration-response curve.
